The test system of the experiment is hydrozoas. Nature of the experiment: Experimental Example 1: effect of antifouling agent for a fishnet, nets immersed in the sea off Konbumori in Hokkaido. In kind it is in vivo. The conditions noted are these: conclusion from Table 3. The text has this:
The antifouling agents for […] shown in Examples 3-10 and Comparative Examples 1 and 2 were respectively applied to Tetoron unknotted nets (1000/26, 3 sun mesh) by immersion and air-dried. The nets were retained at about 15 meters underwater in the sea off Konbumori in Hokkaido for 4 months from August 1995. The adhesion organisms were mostly hydrozoas. As Comparative Example 3, the evaluation results without a treatment with an antifouling agent for a […] shown. • Evaluation A: Area of fouling of […], 0%, no adhesion organisms. • Evaluation B: Area of fouling of […], 0-10%, small amount of adhesion organisms to the extent practically acceptable. • Evaluation C: Area of fouling of […], 10-50%, great amount of adhesion organisms, unpractical as a […]. • Evaluation D: Area of fouling of […], 50% or more, markedly greater amount of adhesion organisms.

Consider “triphenylborane-dehydroabiethylamine adduct [Example 1]”, for which the “antifouling effect against coelenterates such as hydrozoas and obelia (in words)” value was “extremely strong, long-lasting and practical antifouling effect”.

Source of the values: patent EP0877061A1, “TRIPHENYLBORANE-ROSIN AMINE ADDUCT AND USE OF THE SAME” (Yoshitomi Fine Chemicals, Ltd., priority 1996, dated 1997).
